Earlier results, collected in publication PMC4959752, “Pharmacokinetics in Wistar Rats of 5-[(4-Carboxybutanoyl)Amino]-2-Hydroxybenzoic Acid: A Novel Synthetic Derivative of 5-Aminosalicylic Acid (5-ASA) with Possible Anti-Inflammatory Activity” (PLoS ONE, 2016).

Legend:
plasma protein = conditions: comparison value; cited from earlier work
[1] = literature value; cited from earlier work

Compound | protein binding (plasma protein) [%] | plasma half-life [1] [min]
Nc1ccc(O)c(C(=O)O)c1 [5-ASA, 5-aminosalicylic acid] | 40 | –
CC(=O)Oc1ccccc1C(=O)O [aspirin] | – | 15
